Laboratory results published in patent US7517874B2 (priority 2007, dated 2009).

Experiments:
[1] = biological target: human CB1 receptor (hCB1) (Homo sapiens, UniProt P21554); assay: cell-based; type: cell-based
Summary of the method: (§1)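 Agonism or inverse agonism was assessed as change in intracellular cAMP in CHO-K1 cells expressing human CB1 or rat CB2 (genomic DNA, pcDNA3.1).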

rat CB2 receptor (rCB2) = biological target: T1, rat CB2 receptor (rCB2) (Rattus norvegicus, UniProt Q9QZN9); assay: cell-based; type: cell-based; details: agonist or inverse agonist at rCB2
T1 sequence (Q9QZN9 1-360): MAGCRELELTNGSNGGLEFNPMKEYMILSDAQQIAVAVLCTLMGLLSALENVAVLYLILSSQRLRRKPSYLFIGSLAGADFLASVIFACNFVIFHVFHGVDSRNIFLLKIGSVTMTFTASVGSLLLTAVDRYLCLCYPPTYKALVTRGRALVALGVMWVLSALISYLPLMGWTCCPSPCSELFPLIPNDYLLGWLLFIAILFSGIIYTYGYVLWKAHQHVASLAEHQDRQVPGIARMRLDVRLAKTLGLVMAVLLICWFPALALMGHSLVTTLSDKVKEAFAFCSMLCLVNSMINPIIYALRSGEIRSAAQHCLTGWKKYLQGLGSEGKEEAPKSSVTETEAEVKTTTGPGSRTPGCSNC
Summary of the method: as §1

Male Sprague-Dawley rats = assay: Complete Freund's Adjuvant (CFA) model of inflammatory pain, Randall-Selitto paw pressure; type: in vivo; details: rat, intraperitoneal
Procedure: Male Sprague-Dawley rats (Hsd:Sprague-Dawley®™SD®™, Harlan, Indianapolis, Ind.) weighing 201±1 grams, were housed three per cage. Animals had free access to food and water and were maintained on a twelve hour light/dark schedule for the entire duration of the experiment. Approximately 12 hours prior to behavioral testing, animals were placed on wire mesh bottom cages with free access to water but no access to food. Test compounds were prepared in 50% PEG-400 (Sigma-Aldrich, cat. P3265). Indomethacin (Fluka, cat 57413) was suspended in 0.5% methylcellulose (Sigma-Aldrich, cat. 274429). Groups of eight animals were anesthetized with 2-3% isoflurane and local inflammation induced by 50 μl CFA (Sigma-Aldrich, cat F5881, Mycobacterium tuberculosis 1 mg/ml) injected subcutaneously into the plantar surface of the left paw.
Assessment of mechanical hyperalgesia: Baseline and post-treatment withdrawal thresholds to a noxious mechanical stimulus were measured using the Randall-Selitto paw pressure apparatus (Ugo Basile Analgesymeter, model 7200). […] Mechanical hyperalgesia was measured using the Randall-Selitto paw pressure device before CFA injection and after intraperitoneal (i.p.) compound administration over a twenty-four-hour period. The mean and standard error of the mean (SEM) were determined for the injured and normal paws for each treatment group.

human CB1 receptor (hCB1), sequence (P21554 whole entry): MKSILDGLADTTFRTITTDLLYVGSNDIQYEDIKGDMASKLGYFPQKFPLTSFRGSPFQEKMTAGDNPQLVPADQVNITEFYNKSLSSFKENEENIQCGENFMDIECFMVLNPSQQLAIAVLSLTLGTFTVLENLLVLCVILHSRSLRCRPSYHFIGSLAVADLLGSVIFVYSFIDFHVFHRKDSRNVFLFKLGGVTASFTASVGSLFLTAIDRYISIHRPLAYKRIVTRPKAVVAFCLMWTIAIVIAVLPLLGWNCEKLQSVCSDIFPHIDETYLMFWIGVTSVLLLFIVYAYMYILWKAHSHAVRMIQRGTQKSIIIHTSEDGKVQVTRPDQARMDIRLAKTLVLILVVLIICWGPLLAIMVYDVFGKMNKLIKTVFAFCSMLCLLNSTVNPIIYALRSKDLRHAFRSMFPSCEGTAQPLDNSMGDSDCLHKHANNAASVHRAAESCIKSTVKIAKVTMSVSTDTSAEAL

For `CCS(=O)(=O)N1CCn2c(-c3ccccc3)nc(C(=O)N[C@H](C(=O)NC)C(C)(C)C)c2C1` [Compound 91, (S)-N-(3,3-dimethyl-1-(methylamino)-1-oxobutan-2-yl)-7-(ethylsulfonyl)-3-phenyl-5,6,7,8-tetrahydroimidazo[1,5-a]pyrazine-1-carboxamide], the EC50 [1] was greater than 10 µM, the “+/− RCB2” value (rat CB2 receptor (rCB2)) was “−” and the “side effects during the experiment” value (Male Sprague-Dawley rats) was “No side effects were observed”.
